# Calls of active or inactive are those of the source. No cut-off for these calls is given here.
# How the values were obtained:
# MCF7 [1] = assay: Protac activity at VHL/ER in human MCF7 cells assessed as induction of ER degradation at 1 uM measured after 24 hrs by Western blot analysis; assay type: cell-based
# MCF7 [2] = assay: Antiproliferative activity against human MCF7 cells assessed as reduction in cell viability measured after 7 days by celltiter-glo luminescence assay; assay type: functional, cell-based; conditions: for IC50: MCF7, 168 h; for Activity: time 7.0 day
# [3] = Cmax in CD-1 mouse at 2 mg/kg, ip by LC-MS/MS analysis; assay type: ADME, organism-based; conditions: in vivo
# [4] = Tmax in CD-1 mouse at 2 mg/kg, ip by LC-MS/MS analysis; assay type: ADME, organism-based; conditions: in vivo
# [5] = Half life in CD-1 mouse at 2 mg/kg, ip by LC-MS/MS analysis; assay type: ADME, organism-based; conditions: in vivo
# [6] = Observed apparent […] clearance in CD-1 mouse at 2 mg/kg, ip by LC-MS/MS analysis; assay type: ADME, organism-based; conditions: in vivo
# [7] = molecular target: T1, Protein cereblon/Estrogen receptor (Homo sapiens, UniProt P03372+Q96SW2); assay: Protac activity at CRBN/ER in human MCF7 cells assessed as induction of ER degradation at 1 uM measured after 24 hrs by Western blot analysis; assay type: cell-based
# Target sequence in this assay (P03372 whole entry, looked up): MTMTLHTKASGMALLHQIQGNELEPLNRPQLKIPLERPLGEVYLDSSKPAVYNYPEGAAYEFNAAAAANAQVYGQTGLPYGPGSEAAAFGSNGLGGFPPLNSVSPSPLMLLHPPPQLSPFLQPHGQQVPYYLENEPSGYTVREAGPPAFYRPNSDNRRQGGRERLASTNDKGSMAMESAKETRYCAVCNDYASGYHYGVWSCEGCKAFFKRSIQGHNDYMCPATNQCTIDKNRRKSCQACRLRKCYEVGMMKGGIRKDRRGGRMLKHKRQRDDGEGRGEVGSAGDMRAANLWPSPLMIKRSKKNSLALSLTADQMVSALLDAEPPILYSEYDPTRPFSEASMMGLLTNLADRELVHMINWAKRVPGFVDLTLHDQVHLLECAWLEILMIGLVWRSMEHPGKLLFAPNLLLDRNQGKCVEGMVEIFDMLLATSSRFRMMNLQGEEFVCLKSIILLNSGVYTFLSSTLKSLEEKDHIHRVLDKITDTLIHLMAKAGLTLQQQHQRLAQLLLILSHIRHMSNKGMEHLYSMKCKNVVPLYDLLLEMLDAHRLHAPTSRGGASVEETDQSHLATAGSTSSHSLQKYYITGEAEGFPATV
# Target sequence in this assay (Q96SW2 whole entry, looked up): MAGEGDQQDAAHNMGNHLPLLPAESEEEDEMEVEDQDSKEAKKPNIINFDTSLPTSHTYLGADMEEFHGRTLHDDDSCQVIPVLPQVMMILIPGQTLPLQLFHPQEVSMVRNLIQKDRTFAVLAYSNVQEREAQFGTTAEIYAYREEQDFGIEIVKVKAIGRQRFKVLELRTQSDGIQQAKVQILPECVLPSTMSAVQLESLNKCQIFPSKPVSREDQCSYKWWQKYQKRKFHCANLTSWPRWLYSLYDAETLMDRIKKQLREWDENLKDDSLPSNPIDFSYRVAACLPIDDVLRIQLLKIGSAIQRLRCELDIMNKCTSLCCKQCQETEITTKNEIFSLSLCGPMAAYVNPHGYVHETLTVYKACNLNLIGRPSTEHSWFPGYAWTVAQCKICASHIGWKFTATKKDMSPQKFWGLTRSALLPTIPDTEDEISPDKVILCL
# [8] = molecular target: T1, Protein cereblon/Estrogen receptor; assay: Protac activity at CRBN/ER in human MCF7 cells assessed as induction of ER degradation measured after 24 hrs by Western blot analysis; assay type: cell-based
# [9] = molecular target: T1, Protein cereblon/Estrogen receptor; assay: Protac activity at CRBN/ER in human MCF7 cells assessed as induction of ER degradation at 10 uM measured after 24 hrs by Western blot analysis; assay type: cell-based
# Target sequence in this assay (P03372 whole entry, looked up): as the sequence (P03372 whole entry, looked up) above
# Target sequence in this assay (Q96SW2 whole entry, looked up): as the sequence (Q96SW2 whole entry, looked up) above
# [10] = Toxicity in CD-1 mouse assessed as adverse effect at 2 mg/kg, ip; assay type: organism-based; conditions: in vivo
structure (smiles),measurement,setting,value
COC(=O)c1ccc2c(c1)CCCC(c1ccc(Cl)cc1Cl)=C2c1ccc(OC2CCN(CCCN[C@H](C(=O)N3C[C@H](O)C[C@H]3C(=O)N[C@@H](C)c3ccc(-c4scnc4C)cc3)C(C)(C)C)C2)cc1 (some centres undefined),Activity,MCF7 [1],Not active; Degradation Ability Was Poorer When Compared With Compounds Whose E3 Ligase Ligand Was Crbn
C[C@]12CC[C@@H]3c4ccc(O)cc4C[C@@H](CCCCCCCCC[S+]([O-])CCCC(F)(F)C(F)(F)F)[C@H]3[C@@H]1CC[C@@H]2O (some centres undefined) [FULVESTRANT],IC50,MCF7 [2],< 0.0005 µM
same,Cmax,[3],237 ng/mL
same,Tmax,[4],0.83 h
same,half-life,[5],1.47 h
same,CL/F,[6],45.8 mL/min/kg
COC(=O)c1ccc2c(c1)CCCC(c1ccc(Cl)cc1Cl)=C2c1ccc(OC2CCN(CCCNC(=O)C3CCN(C4CCN(C(=O)CNc5cccc6c5CN(C5CCC(=O)NC5=O)C6=O)CC4)CC3)C2)cc1 (centres undefined),IC50,MCF7 [2],0.772 µM
same,Activity,MCF7 [2],Dose-dependent-effect
Cc1ncsc1-c1ccc([C@H](C)NC(=O)[C@@H]2C[C@@H](O)CN2C(=O)[C@@H](NCC2CCN(c3ccc(C4=C(c5ccc(Cl)cc5Cl)CCCc5cc(C(=O)O)ccc54)cc3)CC2)C(C)(C)C)cc1,Activity,MCF7 [1],Not active; Degradation Ability Was Poorer When Compared With Compounds Whose E3 Ligase Ligand Was Crbn
COC(=O)c1ccc2c(c1)CCCC(c1ccc(Cl)cc1Cl)=C2c1ccc(OC2CCN(CCCNC(=O)CN3CCN(C(=O)CNc4cccc5c4CN(C4CCC(=O)NC4=O)C5=O)CC3)C2)cc1 (centres undefined),IC50,MCF7 [2],0.0802 µM
same,Activity,MCF7 [2],Dose-dependent-effect
COC(=O)c1ccc2c(c1)CCCC(c1ccc(Cl)cc1Cl)=C2c1ccc(N2CCC(CN[C@H](C(=O)N3C[C@H](O)C[C@H]3C(=O)N[C@@H](C)c3ccc(-c4scnc4C)cc3)C(C)(C)C)CC2)cc1,Activity,MCF7 [1],Not active; Degradation Ability Was Poorer When Compared With Compounds Whose E3 Ligase Ligand Was Crbn
COC(=O)c1ccc2c(c1)CCCC(c1ccc(Cl)cc1Cl)=C2c1ccc(N2CCN(CC3CCN(CC4CCN(C(=O)CNc5ccc6c(c5)C(=O)N(C5CCC(=O)NC5=O)C6)CC4)CC3)CC2)cc1 (centres undefined),Activity,[7],Active
same,Activity,[8],Dose-dependent-effect
same,DC50,[8],0.095 µM
same,Activity,[9],inactive
same,IC50,MCF7 [2],0.0302 µM
same,Activity,MCF7 [2],Dose-dependent-effect
same,Cmax,[3],677 ng/mL
same,Tmax,[4],0.83 h
same,half-life,[5],11.2 h
same,CL/F,[6],25.8 mL/min/kg
same,Activity,[10],Non-toxic
COC(=O)c1ccc2c(c1)CCCC(c1ccc(Cl)cc1Cl)=C2c1ccc(N2CCC(CNCCOCCCOCCCOCCNC(=O)COc3ccc4c(c3)C(=O)N(C3CCC(=O)NC3=O)C4=O)CC2)cc1 (centres undefined),Activity,[7],Active

# Reference: ChEMBL document CHEMBL6109113, “Design, synthesis, and biological evaluation of novel PROTACs compounds with good ERα degradation ability” (Bioorg Med Chem, 2025)
